As a reminder, the melting point is the temperature, or range, at which the solid turns liquid.

Structures are written as SMILES.

`NC(=O)C1CNCCO1` (stereo not given) gave a melting point of 158 to 160 °C.

Molecule `CC(=O)N1CCCc2ccc(S(=O)(=O)Cl)cc21` had a melting point of 93 to 95 °C.

The molecule `CC(Cl)C(=O)c1c[nH]c2ccccc12` (stereo not given) returned a melting point of 190 to 192 °C.

`OC1CN(c2ccc(C(F)(F)F)cn2)C1` yielded a melting point of 136 to 138 °C.

The molecule `O=C(O)CCCCOc1ccc(Oc2ccccc2)cc1` had a melting point of 53 to 55 °C.

On to `CC(C)C(=O)Nc1cc2ccccc2cc1C(=O)O`, for which the melting point was 203 to 205 °C.

With `O=C(O)c1cc(=O)c2cc(Br)ccc2[nH]1`, the melting point fell in the range of 297 to 299 °C.

`N#Cc1cnn(CCO)c1N` came in with a melting point of 156 to 158 °C.

Take `Cc1c(C(=O)O)c(=O)oc2ccccc12`: the melting point is 163 to 165 °C.

For the molecule `Cc1cc(F)c(S(=O)(=O)Cl)cc1[N+](=O)[O-]`, the melting point fell in the range of 64 to 66 °C.

Turning to `CCOC(=O)C1CCN(C(=O)c2ccccc2)CC1`, the melting point lay within 84 to 86 °C.

With `c1ccc(COc2ccc3ncccc3c2)cc1`, the melting point was 73 to 75 °C.

In turn, `Nc1ccc(C(=O)N2CCCCCC2)cc1` showed a melting point of 133 to 135 °C.

Turning to `Cc1c(N)cccc1COC1CCCCC1`, the melting point fell in the range of 54 to 56 °C.

Consider `CCc1sc(N)c(C(N)=O)c1C`, for which the melting point was 134 to 136 °C.

In turn, `Cc1cc(-n2c(C)cc(C(=O)O)c2C)no1` returned a melting point of 175 to 180 °C.

Regarding `Nc1ccc(-c2nnc3n2CCCC3)cc1`, the melting point was 227 to 229 °C.

`Nc1cc(F)c(N2CCCCC2)c(F)c1` registered a melting point of 70 to 72 °C.

On to `COC(=O)c1cc(C)cc([N+](=O)[O-])c1`, for which the melting point was 80 to 82 °C.

Regarding `O=Cc1cccc(OCc2cccc(C(=O)O)c2)c1`, the melting point lay within 122 to 124 °C.

Regarding `COC(=O)C=Cc1ccc(C(F)(F)F)cc1`, the melting point was 74 to 76 °C.

`Nc1nc(Br)cn2ccnc12` registered a melting point of 215 to 217 °C.

With `CCC(C)n1ncc2c(C(=O)O)cc(C)nc21` (stereo not given), the melting point was 148 to 150 °C.

As to `Cc1coc(C=CC(=O)O)n1`, the melting point lay within 103 to 105 °C.

`COC(=O)C=Cn1c(=O)ccn2ncnc12` yielded a melting point of 239 to 241 °C.

`NS(=O)(=O)c1cnn(Cc2ccccc2)c1`: the melting point was 157 to 159 °C.

`CCOC(C)c1ncc[nH]1` (stereo not given) registered a melting point of 69 to 71 °C.

In the case of `COc1cc(N)cc(OC)c1Br`, the melting point lay within 149 to 151 °C.

As for `NS(=O)(=O)c1ccccc1-c1ccccc1`, the melting point was 116 to 118 °C.

The molecule `CCOC(=O)c1cc(C)n(CC(=O)O)c1C` returned a melting point of 86 to 88 °C.

In turn, `CS(=O)(=O)NCC#N` yielded a melting point of 69 to 71 °C.

`O=C1c2ccccc2C(=O)N1CCCc1nn[nH]n1` gave a melting point of 79 to 81 °C.

The molecule `N#Cc1cc(-c2ccccc2)c(-c2ccccc2)nc1Cl` registered a melting point of 129 to 131 °C.

For the molecule `N#Cc1cccc(NC(=O)CCl)c1`, the melting point fell in the range of 143 to 145 °C.

The molecule `O=C(Cn1ccnc1)c1ccc(F)cc1` returned a melting point of 150 to 152 °C.

With `CC(C)(C)OC(=O)N1CCC(O)(c2ccccc2CO)CC1`, the melting point fell in the range of 106 to 108 °C.

Turning to `CCCCCn1cc(C(=O)O)c2ccccc21`, the melting point lay in the range of 97 to 99 °C.

`Nc1ccc(Br)c(Cl)c1[N+](=O)[O-]` showed a melting point of 106 to 108 °C.

Consider `Fc1ccc(C2=NOC(CCl)C2)cc1` (stereo not given), for which the melting point lay in the range of 59 to 61 °C.

As to `O=C(O)Cn1cc([N+](=O)[O-])ccc1=O`, the melting point is 225 to 227 °C.

For `COc1ccc(C(=O)NC(C(=O)O)c2ccccc2)cc1` (stereo not given), the melting point is 187 to 189 °C.

In turn, `Nc1cc(-c2ccoc2)nn1-c1ccccc1` gave a melting point of 129 to 131 °C.

Take `COC(C)c1ncc(C(=O)O)s1` (stereo not given): the melting point was 131 to 133 °C.

The molecule `Cc1ccc(CNC(=O)n2ccnc2)cc1` came in with a melting point of 132 to 134 °C.

`CC(C)c1ccc(Cn2nccc2N)cc1`: the melting point is < 17 °C.

With `Nc1nccn2ccnc12`, the melting point fell in the range of 212 to 214 °C.

`Nc1ccc(N2CCOCC2)c(S(=O)(=O)Nc2cc(Cl)ccc2Cl)c1`: the melting point was 66 to 68 °C.

`Nc1ccc(OC(F)F)c2ncccc12`: the melting point lay in the range of 119 to 121 °C.

With `O=S(=O)(Cl)c1ccc(S(=O)(=O)NC2CC2)cc1`, the melting point fell in the range of 126 to 128 °C.

In the case of `Cc1noc2nc(C(C)C)cc(C(=O)O)c12`, the melting point lay within 158 to 160 °C.

Molecule `Nc1nc2cc(Br)ccc2o1` gave a melting point of 172 to 174 °C.

`O=C(CCl)c1cnc(N2CCCCC2)s1` gave a melting point of 118 to 120 °C.

Molecule `Cc1ccc(S(=O)(=O)N(C)C(C)C)cc1N` yielded a melting point of 117 to 119 °C.

`Cc1ccc2c(c1)C(=O)N(C(C)C(=O)O)C2=O` (stereo not given) yielded a melting point of 141 to 143 °C.

`c1ccc2c(c1)CNc1ccccc1-2` yielded a melting point of 120 to 122 °C.

`O=C(O)C(OC1CCOCC1)c1ccccc1` (stereo not given) came in with a melting point of 87 to 89 °C.

`Cc1ccccc1CC(=O)Nc1ccc(C(=O)O)c(O)c1`: the melting point is 222 to 224 °C.

Consider `O=C(CCl)N1CCc2ccccc21`, for which the melting point was in the range of 118 to 120 °C.

`CCOc1ccc(C2(C(=O)O)CC2)cc1` came in with a melting point of 118 to 120 °C.

The molecule `COC(=O)c1ccc(C)c(O)c1` gave a melting point of 119 to 121 °C.

In turn, `Cc1ccc(CO)cc1N` displayed a melting point of 108 to 110 °C.

On to `O=C(CC(F)(F)F)c1ccc(F)cc1F`, for which the melting point was 46 to 48 °C.

As to `N#Cc1cccc(C(=O)N2CCCCC2)c1`, the melting point fell in the range of 61 to 63 °C.

Molecule `Cc1cccc2c1OCC2=O` returned a melting point of 83 to 85 °C.

Consider `O=C(O)CNc1nc2ccccc2s1`, for which the melting point fell in the range of 174 to 176 °C.

With `Cc1ccc(S(=O)(=O)N2CCCCC2)cc1N`, the melting point lay within 106 to 110 °C.

Consider `Cn1nnnc1-c1cccc(N)c1`, for which the melting point was in the range of 147 to 149 °C.

For `CCOc1ccc(C(=O)O)cc1OC`, the melting point fell in the range of 198 to 202 °C.

The molecule `Cc1csc(NC(C)C(=O)O)n1` (stereo not given) gave a melting point of 189 to 191 °C.

Consider `Cc1ccc(/C=C/C(=O)O)cc1Cl`, for which the melting point was in the range of 194 to 196 °C.

In the case of `O=C1CC(C(=O)O)C1`, the melting point lay in the range of 58 to 60 °C.

For `Cc1nn(Cc2ccc(F)cc2)c2[nH]nc(N)c12`, the melting point lay within 140 to 142 °C.

The molecule `O=S(=O)(Cc1nc2ccccc2[nH]1)c1ccccc1` came in with a melting point of 215 to 217 °C.

Turning to `COCC(=O)c1cccc([N+](=O)[O-])c1`, the melting point was 105 to 107 °C.

In turn, `N#Cc1ccc(Nc2ccc(Cl)cc2)cc1` yielded a melting point of 139 to 141 °C.

The molecule `COC(=O)c1oc(Br)cc1C` yielded a melting point of 62 to 64 °C.

On to `CCCCC(Br)C(=O)Nc1cc(C)on1` (stereo not given), for which the melting point lay in the range of 84 to 86 °C.

For `Cc1cc(=O)[nH]c(-c2ccc(N)cc2)n1`, the melting point lay within 222 to 224 °C.

In turn, `CC(C)(C)OC(=O)NC1CCC(=O)CC1` showed a melting point of 113 to 115 °C.

In the case of `Nc1cc(Cl)c(Cl)nc1N`, the melting point lay within 149 to 151 °C.

`CCC(C)NS(=O)(=O)c1cccc(C(=O)O)c1` (stereo not given) showed a melting point of 155 to 157 °C.

For the molecule `O=c1[nH]c(S)nc2c1cnn2-c1cccc(Cl)c1`, the melting point was 255 to 257 °C.

Take `CC(C)(C)OC(=O)Nc1cn[nH]c1`: the melting point is 179 to 181 °C.

For `Oc1ccnc(C2CC2)n1`, the melting point was 152 to 154 °C.

Turning to `COc1ccc(C#N)cc1CBr`, the melting point is 123 to 125 °C.

In turn, `O=C(Cc1ccc(Br)cc1)Nc1ccsc1C(=O)O` yielded a melting point of 226 to 228 °C.

Turning to `Cc1cc(C(=O)O)c(C)n1Cc1ccco1`, the melting point lay within 170 to 172 °C.

With `Cc1cnc(=S)[nH]c1`, the melting point fell in the range of 239 to 241 °C.

`COc1cccc2c1OCCC2=O` had a melting point of 80 to 82 °C.

As to `Nc1ccc(S(=O)(=O)C(F)F)cc1`, the melting point lay within 102 to 104 °C.

As for `N#CCc1nc2ccc(Br)cc2c(=O)[nH]1`, the melting point lay within 279 to 281 °C.

Molecule `Cc1cnc(C#N)c(C)c1` gave a melting point of 58 to 60 °C.

Regarding `O=C(CCl)NNC(=O)C1CC1`, the melting point is 185 to 187 °C.

As to `Cc1ccc(C(=O)N2CCCC(C(=O)O)C2)cc1` (stereo not given), the melting point was 146 to 148 °C.

Consider `Cc1c(N)cccc1N1C(=O)CCC1=O`, for which the melting point is 182 to 184 °C.

Take `Cc1nn(-c2ccccc2)c(N)c1-c1ccccc1`: the melting point was in the range of 82 to 84 °C.

In the case of `Oc1cccc(-n2cccn2)c1`, the melting point fell in the range of 131 to 133 °C.

`Nc1ccc(S(=O)(=O)Nc2cccc(C(F)(F)F)c2)cc1`: the melting point was in the range of 113 to 115 °C.

For `Cc1nc2[nH]cnc2cc1Br`, the melting point lay in the range of 197 to 199 °C.

Regarding `O=C(O)Cc1ccc(NC(=O)c2ccc(Br)cc2)cc1`, the melting point was in the range of 269 to 271 °C.

For the molecule `CCn1c(=O)cc(Cl)[nH]c1=O`, the melting point was in the range of 210 to 212 °C.

`COc1cc(Br)cc(OC)c1O` gave a melting point of 99 to 101 °C.

`Cc1ccc(-n2c(N)nc3cc(C)ccc32)cc1`: the melting point fell in the range of 162 to 164 °C.

In turn, `Cc1nnc2ccc(Br)cn12` returned a melting point of 149 to 151 °C.

`O=C(CC(=O)Nc1ccccc1F)Nc1ccccc1F` had a melting point of 158 to 160 °C.

`CCOC(=O)c1c(N)sc2c1CCN(C(C)C)C2`: the melting point was in the range of 81 to 83 °C.

Turning to `Clc1nc(CSc2ccccc2)nc2sc3c(c12)CCCC3`, the melting point fell in the range of 55 to 57 °C.

With `CCCCOc1ccc(C(=O)NC(C(=O)O)C(C)O)cc1` (stereo not given), the melting point lay in the range of 130 to 132 °C.

Molecule `CCCOc1ccc(C=CC(=O)O)cc1OC` came in with a melting point of 187 to 189 °C.

As to `COc1ccc2cc(-c3nn(-c4ccccc4)cc3C=O)ccc2c1`, the melting point is 164 to 166 °C.

The molecule `O=C1CC(=O)Nc2cc(S(=O)(=O)Cl)ccc2N1` displayed a melting point of 253 to 255 °C.

`O=C1COc2ccc(F)cc2N1` came in with a melting point of 204 to 206 °C.

For `CC(C)C1CNc2ccccc2N1` (stereo not given), the melting point lay within 73 to 75 °C.

`Cc1nn(-c2ccc(Cl)cc2)cc1C=O`: the melting point fell in the range of 121 to 123 °C.

In turn, `C#CCNS(=O)(=O)c1ccc(C(=O)O)cc1` registered a melting point of 149 to 151 °C.

`O=C(O)c1csc(-c2ccc(F)cc2)n1`: the melting point lay within 196 to 198 °C.

As to `COc1ccc(C(=O)CBr)cc1Cl`, the melting point lay within 99 to 101 °C.

Turning to `COc1cc(C=C2CCc3c2nc2ccccc2c3C(=O)O)cc(OC)c1OC`, the melting point lay in the range of 246 to 248 °C.

For the molecule `COCCN(CC(=O)O)C(=O)OC(C)(C)C`, the melting point was in the range of 76 to 78 °C.

`CC1(C)NC(=O)N(Cc2ccc(Cl)nc2)C1=O`: the melting point was in the range of 127 to 129 °C.
